Test systems include CAKI-1 renal; DU-145 prostate; EKVX NSCLC; HS 578T breast; NCI-H23 lung; OVCAR-8 ovarian; PC-3 prostate; SN12C renal; SR leukemia; HCC-2998 colon.
Experiment in all cases: NCI tumour cell line growth inhibition, 48 h

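Protocol summary: plate cells (96-well), add compound at 5 concentrations, incubate 48 h, interpolate endpoints linearly. TGI is the concentration that stops growth completely.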

In the case of `Cc1c2cccc-2ccc2c3ccccc3n(C(=O)c3ccc(Cl)cc3)c12`, the TGI in the assay with CAKI-1 renal, in the assay on DU-145 prostate, in the assay on EKVX NSCLC, in the assay on HS 578T breast, in the assay on NCI-H23 lung and with OVCAR-8 ovarian was greater than 100 µM in each case. For the same molecule, the TGI in the assay on PC-3 prostate, in the assay on SN12C renal and with SR leukemia was greater than 100 µM each time.
For the molecule `NC(N)=NC1C(O)C(O)C(O)C(N=C(N)N)C1O` (configuration not stated), the TGI with CAKI-1 renal, in the assay on DU-145 prostate, in the assay with EKVX NSCLC, in the assay with HCC-2998 colon, with HS 578T breast and in the assay on NCI-H23 lung was greater than 100 µM each time. Also, the TGI in the assay on OVCAR-8 ovarian, with PC-3 prostate, with SN12C renal and in the assay with SR leukemia was greater than 100 µM each time.
`O=C(c1ccc(Cl)cc1)N1CCN=C1c1cc2ccccc2c2ccccc12`: the TGI in the assay with CAKI-1 renal was 35.7 µM; in the assay with DU-145 prostate, 38.4 µM; in the assay on EKVX NSCLC it was 28 µM; with HS 578T breast, 35.9 µM; with NCI-H23 lung, 32.7 µM; with OVCAR-8 ovarian, 33.5 µM. The results for the TGI in the assay on PC-3 prostate, with SN12C renal and in the assay on SR leukemia were 37.2 µM, 30.6 µM and 59 µM, respectively.
Turning to `COc1ccccc1NC(=O)CC(=O)NN`, the TGI in the assay on CAKI-1 renal, in the assay with DU-145 prostate, in the assay with EKVX NSCLC, in the assay on HCC-2998 colon, in the assay on HS 578T breast and in the assay with NCI-H23 lung was greater than 100 µM each time. Besides, the TGI in the assay with OVCAR-8 ovarian, with PC-3 prostate, in the assay with SN12C renal and in the assay with SR leukemia was greater than 100 µM throughout.
For `O=C(Nc1nn[nH]n1)c1nc(-c2ccccc2)cc(=O)[nH]1`, the TGI with CAKI-1 renal, with DU-145 prostate, in the assay on EKVX NSCLC, in the assay with HCC-2998 colon, with HS 578T breast and in the assay with NCI-H23 lung was greater than 100 µM each time. Also, the TGI in the assay on OVCAR-8 ovarian, in the assay on PC-3 prostate, in the assay with SN12C renal and in the assay on SR leukemia was greater than 100 µM in each case.
With `CCOC(=O)CCC(C(=O)OCC)n1nnc2cc(Nc3c(C)[n+]([O-])c4cc(F)c(OCC)cc4[n+]3[O-])ccc21` (configuration not stated), the TGI with CAKI-1 renal, with DU-145 prostate, in the assay on EKVX NSCLC, in the assay with HS 578T breast, in the assay on NCI-H23 lung and in the assay on OVCAR-8 ovarian was greater than 100 µM throughout. Besides, the TGI in the assay on PC-3 prostate, in the assay on SN12C renal and in the assay with SR leukemia was greater than 100 µM in each case.
In the case of `S=C1SC(=Nc2ccccc2)C(=Nc2ccccc2)N1c1ccc2ccccc2c1`, the TGI in the assay with CAKI-1 renal, with DU-145 prostate, in the assay on HCC-2998 colon, in the assay on HS 578T breast, in the assay on NCI-H23 lung and in the assay with OVCAR-8 ovarian was greater than 100 µM in each case. For the same molecule, the TGI in the assay on PC-3 prostate, in the assay on SN12C renal and in the assay with SR leukemia was greater than 100 µM throughout.
Turning to `CC1(C)CC[C@]2(C(=O)O)CC[C@]3(C)[C@H](C(=O)C=C4[C@@]5(C)C=C(C#N)C(=O)C(C)(C)[C@@H]5CC[C@]43C)[C@@H]2C1`, the TGI in the assay on CAKI-1 renal was determined as 3.46 µM; with DU-145 prostate, 2.39 µM; in the assay on EKVX NSCLC, 9.68 µM; in the assay on HS 578T breast it was 10.4 µM; with NCI-H23 lung it was 0.628 µM; with OVCAR-8 ovarian it was 2.42 µM. For the same molecule, the results for the TGI in the assay with PC-3 prostate, in the assay on SN12C renal and with SR leukemia were 1.97 µM, 2.97 µM and 2.06 µM, respectively.
Turning to `O=C1NC(Cc2ccc(O)cc2)C(=O)NC1Cc1ccc(O)cc1` (configuration not stated), the TGI in the assay with CAKI-1 renal, in the assay on DU-145 prostate, in the assay with EKVX NSCLC, with HS 578T breast, in the assay with NCI-H23 lung and in the assay on OVCAR-8 ovarian was greater than 100 µM each time. In addition, the TGI with PC-3 prostate, in the assay with SN12C renal and with SR leukemia was greater than 100 µM in each case.
Regarding `CCOc1cc2c(cc1O)C(O)C[C@@H]1[C@@H]2CC[C@]2(C)[C@@H](O)CC[C@@H]12` (some centres not stated), the TGI is greater than 100 µM in the assay on CAKI-1 renal; greater than 74 µM in the assay with DU-145 prostate; greater than 100 µM in the assay with EKVX NSCLC; 30.4 µM with HCC-2998 colon; greater than 100 µM in the assay with HS 578T breast; greater than 24.7 µM in the assay with NCI-H23 lung. For the same molecule, the TGI in the assay on OVCAR-8 ovarian was greater than 50.4 µM; in the assay with PC-3 prostate it was greater than 100 µM; in the assay with SN12C renal it was greater than 100 µM; with SR leukemia, greater than 100 µM.
With `CC(C)CCOC(=O)NC(Nc1ccc(F)cc1)(C(F)(F)F)C(F)(F)F`, the TGI in the assay on CAKI-1 renal, in the assay with DU-145 prostate, with EKVX NSCLC, in the assay on HCC-2998 colon, in the assay with HS 578T breast and in the assay on NCI-H23 lung was greater than 100 µM each time. In addition, the TGI is greater than 100 µM in the assay on OVCAR-8 ovarian, greater than 100 µM in the assay on PC-3 prostate, greater than 100 µM in the assay on SN12C renal and 25.4 µM with SR leukemia.
Turning to `COc1cc2nc(-c3cccs3)nc(Nc3cccc(Cl)c3)c2cc1OC`, the TGI in the assay with CAKI-1 renal, in the assay on DU-145 prostate, in the assay on EKVX NSCLC, with HS 578T breast, in the assay on NCI-H23 lung and in the assay on OVCAR-8 ovarian was greater than 100 µM in each case. For the same molecule, the values for the TGI in the assay on PC-3 prostate, in the assay with SN12C renal and in the assay with SR leukemia were 56.8 µM, greater than 100 µM and greater than 100 µM, respectively.
Regarding `CC1(C)Oc2ccc3c(=O)cc(-c4ccccc4)oc3c2C1C(=O)O` (configuration not stated), the TGI with CAKI-1 renal, in the assay with DU-145 prostate, with EKVX NSCLC, with HCC-2998 colon, in the assay with HS 578T breast and in the assay on NCI-H23 lung was greater than 100 µM throughout. The TGI in the assay on OVCAR-8 ovarian, in the assay with PC-3 prostate, in the assay with SN12C renal and in the assay on SR leukemia was greater than 100 µM throughout.
Turning to `Cc1nc(-c2cc3ccccc3oc2=O)cs1`, the TGI in the assay with CAKI-1 renal was greater than 100 µM; in the assay with DU-145 prostate it was greater than 100 µM; in the assay on EKVX NSCLC, greater than 100 µM; in the assay on HCC-2998 colon, greater than 100 µM; in the assay on HS 578T breast, 65.8 µM; in the assay on OVCAR-8 ovarian it was greater than 100 µM. The TGI in the assay on PC-3 prostate, in the assay on SN12C renal and in the assay on SR leukemia was greater than 100 µM in each case.

The values are drawn from PubChem BioAssay (NCI).
